Reference: the NIST ThermoML archive (doi:10.1021/je050328d)
“And” between values parts separate entries of the source, which are not always exact repeats. Equal entries are not always repeated. ± gives the expanded uncertainty stated by the source.

Conditions: meniscus disappearance in a closed cell

For `CC(C)C` [2-methylpropane], the mass density (390.4 K, Liquid) was 388.9 ± 1.2 kg/m3, the mass density (391.4 K, Gas) was 90.6 ± 1.2 kg/m3 and the mass density (393.73 K, Gas) was 98.2 ± 1.2 kg/m3. For the same compound, the mass density (394.98 K, Gas) was 101.1 ± 1.2 kg/m3, the mass density (397.49 K, Liquid) was 358.7 ± 1.2 kg/m3 and the mass density (398.81 K, Gas) was 114.2 ± 1.2 kg/m3. The mass density (400.69 K, Liquid) was 341.9 ± 1.2 kg/m3, the mass density (402.34 K, Liquid) was 330.3 ± 1.2 kg/m3 and the mass density (404.54 K, Gas) was 142 ± 1.2 kg/m3. For the same compound, the mass density (405.22 K, Liquid) was 308.1 ± 1.2 kg/m3, the mass density (406.17 K, Gas) was 160.4 ± 1.2 kg/m3 and the mass density (406.71 K, Liquid) was 289.4 ± 1.3 kg/m3. The mass density (406.96 K, Liquid) was 284.3 ± 1.3 kg/m3, the mass density (407.03 K, Gas) was 173.9 ± 1.3 kg/m3 and the mass density (407.21 K, Gas) was 179.1 ± 1.3 kg/m3. It also gave a mass density (407.52 K, Liquid) of 271 ± 1.5 kg/m3, a mass density (407.65 K, Gas) of 192.9 ± 2.2 kg/m3 and a mass density (407.75 K, Liquid) of 244.3 ± 6.9 kg/m3. For the same compound, the mass density (407.76 K, Gas) was 202.3 ± 4.2 kg/m3, the mass density (407.79 K, Gas) was 219.3 ± 11 kg/m3 and 225.4 ± 14 kg/m3 and the mass density (407.8 K, Liquid) was 229.4 ± 6.9 kg/m3.
